# Values of other authors in paper PMC9516332 (Frontiers in Oncology, 2022).
# Where two headings read alike, the source gives them in different places.
# Key:
# Conditions in all cases: cited from earlier work
# [1] = target: panel of 255 wild-type kinases (Homo sapiens, UniProt Q00534)
# [2] = target: panel of 255 wild-type kinases (Homo sapiens, UniProt P07949)
# [3] = target: panel of 255 wild-type kinases (Homo sapiens, UniProt P27448)
# [4] = target: panel of 255 wild-type kinases (Homo sapiens, UniProt Q13627)
# [5] = target: T1, panel of 255 wild-type kinases (Homo sapiens, UniProt P54760)
# T1 sequence (P54760 16-987): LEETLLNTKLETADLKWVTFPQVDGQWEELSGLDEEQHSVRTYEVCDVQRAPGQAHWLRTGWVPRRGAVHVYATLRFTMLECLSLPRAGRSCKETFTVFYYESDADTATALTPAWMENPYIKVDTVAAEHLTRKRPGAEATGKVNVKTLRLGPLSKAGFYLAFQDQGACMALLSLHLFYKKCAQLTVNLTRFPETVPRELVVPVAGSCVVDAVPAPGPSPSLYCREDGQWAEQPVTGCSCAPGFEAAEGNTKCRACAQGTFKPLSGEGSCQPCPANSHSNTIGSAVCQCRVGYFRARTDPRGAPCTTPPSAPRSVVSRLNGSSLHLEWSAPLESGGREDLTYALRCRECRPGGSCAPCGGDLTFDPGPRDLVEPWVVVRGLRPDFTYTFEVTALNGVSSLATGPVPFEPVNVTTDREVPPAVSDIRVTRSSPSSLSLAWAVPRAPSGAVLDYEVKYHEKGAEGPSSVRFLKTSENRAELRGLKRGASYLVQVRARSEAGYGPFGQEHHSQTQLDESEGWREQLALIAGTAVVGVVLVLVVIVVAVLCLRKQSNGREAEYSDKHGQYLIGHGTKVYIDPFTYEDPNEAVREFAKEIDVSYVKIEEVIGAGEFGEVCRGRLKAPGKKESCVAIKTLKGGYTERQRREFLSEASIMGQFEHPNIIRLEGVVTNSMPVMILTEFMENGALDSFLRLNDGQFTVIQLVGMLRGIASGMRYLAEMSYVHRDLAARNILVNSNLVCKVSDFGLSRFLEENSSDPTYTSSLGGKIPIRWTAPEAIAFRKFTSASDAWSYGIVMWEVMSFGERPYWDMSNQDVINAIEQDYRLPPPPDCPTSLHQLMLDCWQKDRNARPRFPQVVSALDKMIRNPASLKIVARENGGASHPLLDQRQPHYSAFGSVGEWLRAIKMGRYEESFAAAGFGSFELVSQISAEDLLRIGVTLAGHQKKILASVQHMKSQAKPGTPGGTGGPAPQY
# [6] = target: panel of 255 wild-type kinases (Homo sapiens, UniProt O60674)
# [7] = target: panel of 255 wild-type kinases (Homo sapiens, UniProt P31749)
# [8] = target: panel of 255 wild-type kinases (Homo sapiens, UniProt Q9P0L2)
# [9] = target: T2, panel of 255 wild-type kinases (Homo sapiens, UniProt P36888)
# T2 sequence (P36888 27-993): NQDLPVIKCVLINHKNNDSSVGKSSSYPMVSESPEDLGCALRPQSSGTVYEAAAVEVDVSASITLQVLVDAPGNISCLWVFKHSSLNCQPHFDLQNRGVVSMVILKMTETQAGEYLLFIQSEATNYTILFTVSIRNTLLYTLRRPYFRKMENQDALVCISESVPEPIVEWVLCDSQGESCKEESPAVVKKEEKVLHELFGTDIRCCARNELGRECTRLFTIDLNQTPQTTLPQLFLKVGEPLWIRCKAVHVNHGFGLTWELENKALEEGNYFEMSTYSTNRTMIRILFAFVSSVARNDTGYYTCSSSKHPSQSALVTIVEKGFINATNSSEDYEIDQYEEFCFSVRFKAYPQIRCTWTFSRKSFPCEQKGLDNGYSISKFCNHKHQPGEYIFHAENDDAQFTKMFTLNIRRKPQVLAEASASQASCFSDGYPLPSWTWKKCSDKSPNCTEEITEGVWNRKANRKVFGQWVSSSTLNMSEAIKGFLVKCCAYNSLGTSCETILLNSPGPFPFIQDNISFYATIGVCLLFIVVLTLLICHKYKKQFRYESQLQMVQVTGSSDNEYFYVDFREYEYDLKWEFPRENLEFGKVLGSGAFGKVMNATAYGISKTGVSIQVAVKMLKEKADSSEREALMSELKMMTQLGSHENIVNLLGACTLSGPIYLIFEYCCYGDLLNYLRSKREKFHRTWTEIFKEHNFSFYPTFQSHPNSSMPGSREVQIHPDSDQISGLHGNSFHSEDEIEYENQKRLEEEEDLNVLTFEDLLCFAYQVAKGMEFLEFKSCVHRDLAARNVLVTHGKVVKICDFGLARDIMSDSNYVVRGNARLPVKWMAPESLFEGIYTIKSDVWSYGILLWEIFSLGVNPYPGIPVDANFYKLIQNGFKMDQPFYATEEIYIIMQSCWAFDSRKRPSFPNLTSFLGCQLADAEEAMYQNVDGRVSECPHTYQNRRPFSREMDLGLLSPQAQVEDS
# [10] = CDK6/CycD3 kinase assay, 1 µmol/L single concentration, ref DOI: 10.1158/1535-7163.MCT-18-0877
# [11] = kinase RET, 1 µmol/L single concentration, ref DOI: 10.1158/1535-7163.MCT-18-0877
# [12] = MARK3, 1 µmol/L single concentration, ref DOI: 10.1158/1535-7163.MCT-18-0877
# [13] = kinase DYRK1A, 1 µmol/L single concentration, ref DOI: 10.1158/1535-7163.MCT-18-0877
# [14] = kinase EPHB4, 1 µmol/L single concentration, ref DOI: 10.1158/1535-7163.MCT-18-0877
# [15] = kinase JAK2, 1 µmol/L single concentration, ref DOI: 10.1158/1535-7163.MCT-18-0877
# [16] = AKT1 kinase assay, 1 µmol/L single concentration, ref DOI: 10.1158/1535-7163.MCT-18-0877
# [17] = MARK1, 1 µmol/L single concentration, ref DOI: 10.1158/1535-7163.MCT-18-0877
# [18] = kinase FLT3, 1 µmol/L single concentration, ref DOI: 10.1158/1535-7163.MCT-18-0877
# [19] = CDK6/CycD3 kinase assay, 1 µmol/L single concentration, ref DOI: 10.1371/journal.pone.0092146
# [20] = MARK3, 1 µmol/L single concentration, ref DOI: 10.1371/journal.pone.0092146
# [21] = kinase DYRK1A, 1 µmol/L single concentration, ref DOI: 10.1371/journal.pone.0092146
# [22] = kinase EPHB4, 1 µmol/L single concentration, ref DOI: 10.1371/journal.pone.0092146
# [23] = kinase JAK2, 1 µmol/L single concentration, ref DOI: 10.1371/journal.pone.0092146
# [24] = AKT1 kinase assay, 1 µmol/L single concentration, ref DOI: 10.1371/journal.pone.0092146
# [25] = MARK1, 1 µmol/L single concentration, ref DOI: 10.1371/journal.pone.0092146
# [26] = kinase RET, 1 µmol/L single concentration, ref DOI: 10.1371/journal.pone.0092146
# [27] = kinase FLT3, 1 µmol/L single concentration, ref DOI: 10.1371/journal.pone.0092146
SMILES,"%-inhibition CDK6/CycD3 [1, 10]","%-inhibition at 1 µmol/L, RET [2, 11]","%-inhibition, MARK3 [3, 12]","%-inhibition at 1 µmol/L, DYRK1A [4, 13]","%-inhibition at 1 µmol/L, EPHB4 [5, 14]","%-inhibition at 1 µmol/L, JAK2 [6, 15]","%-inhibition AKT1 [7, 16]","%-inhibition, MARK1 [8, 17]","%-inhibition at 1 µmol/L, FLT3 [9, 18]","%-inhibition, MARK3 [3, 20]","%-inhibition at 1 µmol/L, DYRK1A [4, 21]","%-inhibition, MARK1 [8, 25]",further results
CC#CC(=O)N1CCC[C@H]1c1nc(-c2ccc(C(=O)Nc3ccccn3)cc2)c2c(N)nccn12 [acalabrutinib],3%,14%,-2.57%,-4.57%,-1.45%,-9%,-6%,-3.49%,3.27%,,,,
CCc1cc2c(cc1N1CCC(N3CCOCC3)CC1)C(C)(C)c1[nH]c3cc(C#N)ccc3c1C2=O [alectinib],-0.448%,91%,9%,4%,11%,-3%,3.25%,8%,78%,,,,
COc1cc(N2CCC(N3CCN(C)CC3)CC2)ccc1Nc1ncc(Cl)c(Nc2ccccc2P(C)(C)=O)n1 [brigatinib],,,,,,,,,,,,,"%-inhibition CDK6/CycD3 [1]: 18%; %-inhibition at 1 µmol/L, RET [2]: 96%; %-inhibition, MARK3 [3]: 99%; %-inhibition at 1 µmol/L, DYRK1A [4]: 38%; %-inhibition at 1 µmol/L, EPHB4 [5]: 9%; %-inhibition at 1 µmol/L, JAK2 [6]: 90%; %-inhibition AKT1 [7]: 1.5%; %-inhibition, MARK1 [8]: 96%; %-inhibition at 1 µmol/L, FLT3 [9]: 101%"
Cc1cc(Nc2ncc(Cl)c(Nc3ccccc3S(=O)(=O)C(C)C)n2)c(OC(C)C)cc1C1CCNCC1 [ceritinib],3.4%,32%,10%,1.13%,3.73%,-5.35%,-8%,8.55%,,,,,
O=C(c1ccc(F)c(F)c1Nc1ccc(I)cc1F)N1CC(O)([C@@H]2CCCCN2)C1 [cobimetinib],0.129%,4%,-1.51%,-5%,-2.41%,1.2%,-7%,-5%,-0.393%,,,,
C[C@@H](Oc1cc(-c2cnn(C3CCNCC3)c2)cnc1N)c1c(Cl)ccc(F)c1Cl [crizotinib],,,,,,,,,,41%,-13%,27%,"%-inhibition CDK6/CycD3 [1, 19]: 0.0624%; %-inhibition at 1 µmol/L, EPHB4 [5, 22]: 83%; %-inhibition at 1 µmol/L, JAK2 [6, 23]: 98%; %-inhibition AKT1 [7, 24]: -7%"
CC(C)(C)c1nc(-c2cccc(NS(=O)(=O)c3c(F)cccc3F)c2F)c(-c2ccnc(N)n2)s1 [dabrafenib],,,,,,,,,,4%,16%,-15%,"%-inhibition at 1 µmol/L, RET [2, 26]: 49%; %-inhibition at 1 µmol/L, FLT3 [9, 27]: 41%"
C=CC(=O)N1CCC[C@@H](n2nc(-c3ccc(Oc4ccccc4)cc3)c3c(N)ncnc32)C1 [ibrutinib],4.32%,88%,-6%,-3.54%,27%,0.407%,-9%,2.46%,63%,,,,
CO[C@@H]1[C@H](N(C)C(=O)c2ccccc2)C[C@H]2O[C@]1(C)n1c3ccccc3c3c4c(c5c6ccccc6n2c5c31)C(=O)NC4 [midostaurin],1.81%,94%,,,1.2%,99%,,,,,,,
C=CC(=O)Nc1cc(Nc2nccc(-c3cn(C)c4ccccc34)n2)c(OC)cc1N(C)CCN(C)C [osimertinib],0.62%,7%,9%,0.712%,-3%,4%,-9%,19%,84%,,,,
CC(=O)Nc1cccc(-n2c(=O)n(C3CC3)c(=O)c3c(Nc4ccc(I)cc4F)n(C)c(=O)c(C)c32)c1 [trametinib],,,,,,,,,,-3.21%,-1.23%,-17%,"%-inhibition CDK6/CycD3 [1, 19]: -4.23%; %-inhibition at 1 µmol/L, RET [2, 26]: -8%; %-inhibition at 1 µmol/L, EPHB4 [5, 22]: -3.38%; %-inhibition at 1 µmol/L, JAK2 [6, 23]: 1.75%; %-inhibition AKT1 [7, 24]: -3%; %-inhibition at 1 µmol/L, FLT3 [9, 27]: 20%"
CCCS(=O)(=O)Nc1ccc(F)c(C(=O)c2c[nH]c3ncc(-c4ccc(Cl)cc4)cc23)c1F [vemurafenib],,,,,,,,,,-0.226%,-18%,-9%,"%-inhibition CDK6/CycD3 [1, 19]: 2.43%; %-inhibition at 1 µmol/L, RET [2, 26]: 32%; %-inhibition at 1 µmol/L, EPHB4 [5, 22]: 3.73%; %-inhibition at 1 µmol/L, JAK2 [6, 23]: 18%; %-inhibition AKT1 [7, 24]: -4.52%; %-inhibition at 1 µmol/L, FLT3 [9, 27]: 10%"
